Assay results: the NIST ThermoML archive (doi:10.1016/j.fluid.2012.08.002)

Assay: xn = mol fraction of the nth substance listed
Details: 101 kPa, Liquid; for speed of sound: Sing-around technique in a fixed-path interferometer; for mass density: Vibrating tube method

CCCCCCn1cc[n+](C)c1.F[B-](F)(F)F [1-hexyl-3-methylimidazolium tetrafluoroborate] + COCCO
Details | mass density [kg/m3] | speed of sound [m/s]
288.15 K, x1 = 0.053 | 996.474 | 1409.6
288.15 K, x1 = 0.1088 | 1021 | 1431.9
288.15 K, x1 = 0.2016 | 1052.83 | 1457.6
288.15 K, x1 = 0.3088 | 1077.88 | 1478.5
288.15 K, x1 = 0.4106 | 1093.47 | 1491.7
288.15 K, x1 = 0.5023 | 1103.61 | 1503.4
288.15 K, x1 = 0.5962 | 1112.5 | 1512.3
288.15 K, x1 = 0.7006 | 1122.49 | 1520
288.15 K, x1 = 0.7995 | 1132.99 | 1529.1
288.15 K, x1 = 0.9099 | 1145.62 | 1540
293.15 K, x1 = 0.053 | 991.791 | 1392.4
293.15 K, x1 = 0.1088 | 1016.45 | 1415.8
293.15 K, x1 = 0.2016 | 1048.37 | 1442.3
293.15 K, x1 = 0.3088 | 1073.64 | 1463.8
293.15 K, x1 = 0.4106 | 1089.74 | 1477.6
293.15 K, x1 = 0.5023 | 1100.22 | 1490.1
293.15 K, x1 = 0.5962 | 1109.27 | 1499.5
293.15 K, x1 = 0.7006 | 1119.44 | 1508.2
293.15 K, x1 = 0.7995 | 1130.02 | 1518.1
293.15 K, x1 = 0.9099 | 1142.38 | 1527.2
298.15 K, x1 = 0.053 | 987.817 | 1375.8
298.15 K, x1 = 0.1088 | 1012.38 | 1399.8
298.15 K, x1 = 0.2016 | 1044.22 | 1427.1
298.15 K, x1 = 0.3088 | 1069.47 | 1449.5
298.15 K, x1 = 0.4106 | 1085.86 | 1463.8
298.15 K, x1 = 0.5023 | 1096.66 | 1476.9
298.15 K, x1 = 0.5962 | 1106.01 | 1487.1
298.15 K, x1 = 0.7006 | 1116.37 | 1496.5
298.15 K, x1 = 0.7995 | 1126.8 | 1505.8
298.15 K, x1 = 0.9099 | 1138.92 | 1514.7
303.15 K, x1 = 0.053 | 983.383 | 1359.3
303.15 K, x1 = 0.1088 | 1008.21 | 1384
303.15 K, x1 = 0.2016 | 1040.16 | 1411.9
303.15 K, x1 = 0.3088 | 1065.51 | 1435.5
303.15 K, x1 = 0.4106 | 1081.93 | 1450.1
303.15 K, x1 = 0.5023 | 1092.85 | 1463.9
303.15 K, x1 = 0.5962 | 1102.49 | 1474.7
303.15 K, x1 = 0.7006 | 1113.08 | 1484.5
303.15 K, x1 = 0.7995 | 1123.59 | 1493.6
303.15 K, x1 = 0.9099 | 1135.86 | 1502.4
308.15 K, x1 = 0.053 | 979.101 | 1342.8
308.15 K, x1 = 0.1088 | 1004.1 | 1368.2
308.15 K, x1 = 0.2016 | 1036.07 | 1397
308.15 K, x1 = 0.3088 | 1061.47 | 1421.5
308.15 K, x1 = 0.4106 | 1077.94 | 1436.9
308.15 K, x1 = 0.5023 | 1089.12 | 1451
308.15 K, x1 = 0.5962 | 1098.81 | 1462.2
308.15 K, x1 = 0.7006 | 1109.56 | 1472.2
308.15 K, x1 = 0.7995 | 1120.09 | 1481.5
308.15 K, x1 = 0.9099 | 1132.31 | 1490.3
313.15 K, x1 = 0.053 | 974.997 | 1326.5
313.15 K, x1 = 0.1088 | 999.809 | 1352.3
313.15 K, x1 = 0.2016 | 1031.82 | 1382.1
313.15 K, x1 = 0.3088 | 1057.43 | 1407.4
313.15 K, x1 = 0.4106 | 1073.99 | 1424.1
313.15 K, x1 = 0.5023 | 1085.32 | 1438.4
313.15 K, x1 = 0.5962 | 1095.09 | 1449.7
313.15 K, x1 = 0.7006 | 1105.89 | 1460.1
313.15 K, x1 = 0.7995 | 1116.48 | 1469.5
313.15 K, x1 = 0.9099 | 1128.74 | 1478.5
318.15 K, x1 = 0.053 | 970.346 | 1309.8
318.15 K, x1 = 0.1088 | 995.598 | 1336.2
318.15 K, x1 = 0.2016 | 1027.87 | 1367.3
318.15 K, x1 = 0.3088 | 1053.41 | 1393.3
318.15 K, x1 = 0.4106 | 1070.02 | 1411.6
318.15 K, x1 = 0.5023 | 1080.99 | 1425.6
318.15 K, x1 = 0.5962 | 1090.77 | 1437.4
318.15 K, x1 = 0.7006 | 1101.5 | 1448.2
318.15 K, x1 = 0.7995 | 1112.28 | 1457.7
318.15 K, x1 = 0.9099 | 1124.84 | 1466.9
